Reference: patent US20230340012A1, “NATURAL AND SYNTHETIC COMPOUNDS FOR TREATING CANCER AND OTHER DISEASES” (PACIFIC ARROW LIMITED, priority 2009, published 2023)

Tested on: cancer cells
Assay: MTT cytotoxic assay of esterification products (Cytotoxicity activity)
Format: cell-based, human
Details: compounds isolated with HPLC
Outline: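 Cytotoxicity was read by MTT (Carmichael method, modified), with cells seeded 24 h ahead of treatment. Sixteen human cancer lines spanning bone, lung, bladder, ovary, colon, pancreas, prostate, skin, mouth, kidney, breast, liver, brain, leukemia and cervix were used. Test samples were acyl chloride esterification products of triterpenes, as mixtures or HPLC-purified compounds.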

[1] = E4A esterified with Acetyl chloride (Acy = Acetyl)
[2] = E4A esterified with Crotonoyl chloride (Cro = Crotonoyl)
[3] = E4A esterified with Cinnamoyl chloride (Cin = Cinnamoyl)

| Compound | Cytotoxicity activity [2] | also measured |
| --- | --- | --- |
| CC(=O)OCC12C(O)CC3(C)C(=CCC4C5(C)CCC(O)C(C)(CO)C5CCC43C)C1CC(C)(C)C(OC(C)=O)C2O (stereo not shown) [Compound H25] | – | Cytotoxicity activity [1]: moderate |
| CC(=O)OCC12C(O)CC3(C)C(=CCC4C5(C)CCC(O)C(C)(CO)C5CCC43C)C1CC(C)(C)C(O)C2OC(C)=O (stereo not shown) [Compound H26] | – | Cytotoxicity activity [1]: moderate |
| CC(=O)OCC12C(O)CC3(C)C(=CCC4C5(C)CCC(OC(C)=O)C(C)(CO)C5CCC43C)C1CC(C)(C)C(O)C2O (stereo not shown) [Compound H27] | – | Cytotoxicity activity [1]: moderate |
| CC(=O)OCC12C(OC(C)=O)CC3(C)C(=CCC4C5(C)CCC(O)C(C)(CO)C5CCC43C)C1CC(C)(C)C(O)C2O (stereo not shown) [Compound H28] | – | Cytotoxicity activity [1]: moderate |
| CC(=O)OCC1(C)C(O)CCC2(C)C1CCC1(C)C2CC=C2C3CC(C)(C)C(OC(C)=O)C(O)C3(CO)C(O)CC21C (stereo not shown) [Compound H29] | – | Cytotoxicity activity [1]: moderate |
| CC(=O)OCC1(C)C(O)CCC2(C)C1CCC1(C)C2CC=C2C3CC(C)(C)C(O)C(OC(C)=O)C3(CO)C(O)CC21C (stereo not shown) [Compound H30] | – | Cytotoxicity activity [1]: moderate |
| CC(=O)OCC1(C)C(OC(C)=O)CCC2(C)C1CCC1(C)C2CC=C2C3CC(C)(C)C(O)C(O)C3(CO)C(O)CC21C (stereo not shown) [Compound H31] | – | Cytotoxicity activity [1]: moderate |
| CC(=O)OCC1(C)C(O)CCC2(C)C1CCC1(C)C2CC=C2C3CC(C)(C)C(O)C(O)C3(CO)C(OC(C)=O)CC21C (stereo not shown) [Compound H32] | – | Cytotoxicity activity [1]: moderate |
| CC=CC(=O)OCC1(C)C(O)CCC2(C)C1CCC1(C)C2CC=C2C3CC(C)(C)C(O)C(O)C3(CO)C(O)CC21C (stereo not shown) [Compound I1] | moderate | – |
| CC=CC(=O)OCC12C(O)CC3(C)C(=CCC4C5(C)CCC(O)C(C)(CO)C5CCC43C)C1CC(C)(C)C(O)C2O (stereo not shown) [Compound I2] | moderate | – |
| CC=CC(=O)OCC1(C)C(O)CCC2(C)C1CCC1(C)C2CC=C2C3CC(C)(C)C(O)C(O)C3(COC(=O)C=CC)C(O)CC21C (stereo not shown) [Compound I3] | strong | – |
| CC=CC(=O)OCC1(C)C(O)CCC2(C)C1CCC1(C)C2CC=C2C3CC(C)(C)C(OC(=O)C=CC)C(O)C3(COC(=O)C=CC)C(O)CC21C (stereo not shown) [Compound I4] | moderate | – |
| CC=CC(=O)OCC1(C)C(O)CCC2(C)C1CCC1(C)C2CC=C2C3CC(C)(C)C(O)C(OC(=O)C=CC)C3(COC(=O)C=CC)C(O)CC21C (stereo not shown) [Compound I5] | moderate | – |
| CC=CC(=O)OCC1(C)C(OC(=O)C=CC)CCC2(C)C1CCC1(C)C2CC=C2C3CC(C)(C)C(O)C(O)C3(COC(=O)C=CC)C(O)CC21C (stereo not shown) [Compound I6] | moderate | – |
| CC=CC(=O)OCC1(C)C(O)CCC2(C)C1CCC1(C)C2CC=C2C3CC(C)(C)C(O)C(O)C3(COC(=O)C=CC)C(OC(=O)C=CC)CC21C (stereo not shown) [Compound I7] | moderate | – |
| CC=CC(=O)OCC1(C)C(O)CCC2(C)C1CCC1(C)C2CC=C2C3CC(C)(C)C(OC(=O)C=CC)C(OC(=O)C=CC)C3(COC(=O)C=CC)C(O)CC21C (stereo not shown) [Compound I8] | weak | – |
| CC=CC(=O)OCC1(C)C(OC(=O)C=CC)CCC2(C)C1CCC1(C)C2CC=C2C3CC(C)(C)C(O)C(OC(=O)C=CC)C3(COC(=O)C=CC)C(O)CC21C (stereo not shown) [Compound I9] | weak | – |
| CC=CC(=O)OCC1(C)C(OC(=O)C=CC)CCC2(C)C1CCC1(C)C2CC=C2C3CC(C)(C)C(O)C(O)C3(COC(=O)C=CC)C(OC(=O)C=CC)CC21C (stereo not shown) [Compound I10] | weak | – |
| CC=CC(=O)OCC1(C)C(OC(=O)C=CC)CCC2(C)C1CCC1(C)C2CC=C2C3CC(C)(C)C(OC(=O)C=CC)C(O)C3(COC(=O)C=CC)C(O)CC21C (stereo not shown) [Compound I11] | weak | – |
| CC=CC(=O)OCC1(C)C(O)CCC2(C)C1CCC1(C)C2CC=C2C3CC(C)(C)C(O)C(OC(=O)C=CC)C3(COC(=O)C=CC)C(OC(=O)C=CC)CC21C (stereo not shown) [Compound I12] | weak | – |
| CC=CC(=O)OCC1(C)C(O)CCC2(C)C1CCC1(C)C2CC=C2C3CC(C)(C)C(OC(=O)C=CC)C(O)C3(COC(=O)C=CC)C(OC(=O)C=CC)CC21C (stereo not shown) [Compound I13] | weak | – |
| CC=CC(=O)OCC1(C)C(OC(=O)C=CC)CCC2(C)C1CCC1(C)C2CC=C2C3CC(C)(C)C(O)C(OC(=O)C=CC)C3(COC(=O)C=CC)C(O)CC21C (stereo not shown) [Compound I14] | weak | – |
| CC=CC(=O)OCC1(C)C(OC(=O)C=CC)CCC2(C)C1CCC1(C)C2CC=C2C3CC(C)(C)C(OC(=O)C=CC)C(OC(=O)C=CC)C3(COC(=O)C=CC)C(O)CC21C (stereo not shown) [Compound I15] | weak | – |
| CC=CC(=O)OCC1(C)C(O)CCC2(C)C1CCC1(C)C2CC=C2C3CC(C)(C)C(OC(=O)C=CC)C(OC(=O)C=CC)C3(COC(=O)C=CC)C(OC(=O)C=CC)CC21C (stereo not shown) [Compound I16] | weak | – |
| CC=CC(=O)OCC1(C)C(OC(=O)C=CC)CCC2(C)C1CCC1(C)C2CC=C2C3CC(C)(C)C(OC(=O)C=CC)C(O)C3(COC(=O)C=CC)C(OC(=O)C=CC)CC21C (stereo not shown) [Compound I17] | weak | – |

| Compound | Cytotoxicity activity [2] | also measured |
| --- | --- | --- |
| CC=CC(=O)OCC1(C)C(OC(=O)C=CC)CCC2(C)C1CCC1(C)C2CC=C2C3CC(C)(C)C(O)C(OC(=O)C=CC)C3(COC(=O)C=CC)C(OC(=O)C=CC)CC21C (stereo not shown) [Compound I18] | weak | – |
| CC=CC(=O)OCC1(C)C(OC(=O)C=CC)CCC2(C)C1CCC1(C)C2CC=C2C3CC(C)(C)C(OC(=O)C=CC)C(OC(=O)C=CC)C3(COC(=O)C=CC)C(OC(=O)C=CC)CC21C (stereo not shown) [Compound I19] | none | – |
| CC=CC(=O)OCC12C(O)CC3(C)C(=CCC4C5(C)CCC(O)C(C)(CO)C5CCC43C)C1CC(C)(C)C(OC(=O)C=CC)C2OC(=O)C=CC (stereo not shown) [Compound I20] | moderate | – |
| CC=CC(=O)OCC1(C)C(O)CCC2(C)C1CCC1(C)C2CC=C2C3CC(C)(C)C(OC(=O)C=CC)C(OC(=O)C=CC)C3(CO)C(O)CC21C (stereo not shown) [Compound I21] | moderate | – |
| CC=CC(=O)OC1C(OC(=O)C=CC)C2(CO)C(OC(=O)C=CC)CC3(C)C(=CCC4C5(C)CCC(O)C(C)(CO)C5CCC43C)C2CC1(C)C (stereo not shown) [Compound I22] | moderate | – |
| CC=CC(=O)OC1C(OC(=O)C=CC)C2(CO)C(O)CC3(C)C(=CCC4C5(C)CCC(OC(=O)C=CC)C(C)(CO)C5CCC43C)C2CC1(C)C (stereo not shown) [Compound I23] | moderate | – |
| CC=CC(=O)OC1C(OC(=O)C=CC)C2(CO)C(O)CC3(C)C(=CCC4C5(C)CCC(O)C(C)(CO)C5CCC43C)C2CC1(C)C (stereo not shown) [Compound I24] | moderate | – |
| CC=CC(=O)OCC12C(O)CC3(C)C(=CCC4C5(C)CCC(O)C(C)(CO)C5CCC43C)C1CC(C)(C)C(OC(=O)C=CC)C2O (stereo not shown) [Compound I25] | moderate | – |
| CC=CC(=O)OCC12C(O)CC3(C)C(=CCC4C5(C)CCC(O)C(C)(CO)C5CCC43C)C1CC(C)(C)C(O)C2OC(=O)C=CC (stereo not shown) [Compound I26] | moderate | – |
| CC=CC(=O)OCC12C(O)CC3(C)C(=CCC4C5(C)CCC(OC(=O)C=CC)C(C)(CO)C5CCC43C)C1CC(C)(C)C(O)C2O (stereo not shown) [Compound I27] | moderate | – |
| CC=CC(=O)OCC12C(OC(=O)C=CC)CC3(C)C(=CCC4C5(C)CCC(O)C(C)(CO)C5CCC43C)C1CC(C)(C)C(O)C2O (stereo not shown) [Compound I28] | moderate | – |
| CC=CC(=O)OCC1(C)C(O)CCC2(C)C1CCC1(C)C2CC=C2C3CC(C)(C)C(OC(=O)C=CC)C(O)C3(CO)C(O)CC21C (stereo not shown) [Compound I29] | moderate | – |
| CC=CC(=O)OCC1(C)C(O)CCC2(C)C1CCC1(C)C2CC=C2C3CC(C)(C)C(O)C(OC(=O)C=CC)C3(CO)C(O)CC21C (stereo not shown) [Compound I30] | moderate | – |
| CC=CC(=O)OCC1(C)C(OC(=O)C=CC)CCC2(C)C1CCC1(C)C2CC=C2C3CC(C)(C)C(O)C(O)C3(CO)C(O)CC21C (stereo not shown) [Compound I31] | moderate | – |
| CC=CC(=O)OCC1(C)C(O)CCC2(C)C1CCC1(C)C2CC=C2C3CC(C)(C)C(O)C(O)C3(CO)C(OC(=O)C=CC)CC21C (stereo not shown) [Compound I32] | moderate | – |
| CC1(C)CC2C3=CCC4C5(C)CCC(O)C(C)(COC(=O)C=Cc6ccccc6)C5CCC4(C)C3(C)CC(O)C2(CO)C(O)C1O (stereo not shown) [Compound J1] | – | Cytotoxicity activity [3]: moderate |
| CC1(C)CC2C3=CCC4C5(C)CCC(O)C(C)(CO)C5CCC4(C)C3(C)CC(O)C2(COC(=O)C=Cc2ccccc2)C(O)C1O (stereo not shown) [Compound J2] | – | Cytotoxicity activity [3]: moderate |
| CC1(C)CC2C3=CCC4C5(C)CCC(O)C(C)(COC(=O)C=Cc6ccccc6)C5CCC4(C)C3(C)CC(O)C2(COC(=O)C=Cc2ccccc2)C(O)C1O (stereo not shown) [Compound J3] | – | Cytotoxicity activity [3]: strong |
| CC1(C)CC2C3=CCC4C5(C)CCC(O)C(C)(COC(=O)C=Cc6ccccc6)C5CCC4(C)C3(C)CC(O)C2(COC(=O)C=Cc2ccccc2)C(O)C1OC(=O)C=Cc1ccccc1 (stereo not shown) [Compound J4] | – | Cytotoxicity activity [3]: moderate |
| CC1(C)CC2C3=CCC4C5(C)CCC(O)C(C)(COC(=O)C=Cc6ccccc6)C5CCC4(C)C3(C)CC(O)C2(COC(=O)C=Cc2ccccc2)C(OC(=O)C=Cc2ccccc2)C1O (stereo not shown) [Compound J5] | – | Cytotoxicity activity [3]: moderate |
| CC1(C)CC2C3=CCC4C5(C)CCC(OC(=O)C=Cc6ccccc6)C(C)(COC(=O)C=Cc6ccccc6)C5CCC4(C)C3(C)CC(O)C2(COC(=O)C=Cc2ccccc2)C(O)C1O (stereo not shown) [Compound J6] | – | Cytotoxicity activity [3]: moderate |
| CC1(C)CC2C3=CCC4C5(C)CCC(O)C(C)(COC(=O)C=Cc6ccccc6)C5CCC4(C)C3(C)CC(OC(=O)C=Cc3ccccc3)C2(COC(=O)C=Cc2ccccc2)C(O)C1O (stereo not shown) [Compound J7] | – | Cytotoxicity activity [3]: moderate |
| CC1(C)CC2C3=CCC4C5(C)CCC(O)C(C)(COC(=O)C=Cc6ccccc6)C5CCC4(C)C3(C)CC(O)C2(COC(=O)C=Cc2ccccc2)C(OC(=O)C=Cc2ccccc2)C1OC(=O)C=Cc1ccccc1 (stereo not shown) [Compound J8] | – | Cytotoxicity activity [3]: weak |
| CC1(C)CC2C3=CCC4C5(C)CCC(OC(=O)C=Cc6ccccc6)C(C)(COC(=O)C=Cc6ccccc6)C5CCC4(C)C3(C)CC(O)C2(COC(=O)C=Cc2ccccc2)C(OC(=O)C=Cc2ccccc2)C1O (stereo not shown) [Compound J9] | – | Cytotoxicity activity [3]: weak |
